This is an account of results in patent US9028845B2, “Chimeric immunomodulatory compounds and methods of using the same-IV” (Dynavax Technologies Corporation, priority 2001, dated 2015).

Entries after “also recorded” stand apart in the source; their conditions may differ.

This assay deals with human PBMCs. In words: Human PBMC cytokine response assay (IFN-γ and IFN-α in cell-free medium by ELISA), with or without cPLGA.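 On IFN-α (pg/ml) mean: 20 µg/mL compound for 24 hours.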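 On IFN-γ (pg/ml) mean: 20 µg/mL compound for 24 hours.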 Format: cell-based. Particulars: for IFN-γ induction, in words: used alone; for immunomodulatory activity (IFN-γ / IFN-α secretion), in words: used alone (no cPLGA).
Where [1] appears, read: Table 25, mean of donors 28250-28253.
The mark [2] stands for this setting: donor 28066, 20 ug/ml, 24 h, + PLGA = premixed with 100 μg/ml cPLGA.
Setting [3] is: donor 28067, 20 ug/ml, 24 h, + PLGA = premixed with 100 μg/ml cPLGA.
Where [4] appears, read: donor 28068, 20 ug/ml, 24 h, + PLGA = premixed with 100 μg/ml cPLGA.
Where [5] appears, read: mean of Donors 3-4, 20 μg/ml, 24 h.
The mark [6] stands for this setting: mean of Donors 9-12, 20 μg/ml, 24 h.
[7] abbreviates: mean of donors 28065-28068, 20 ug/ml, 24 h, + PLGA = premixed with 100 μg/ml cPLGA.
The mark [8] stands for this setting: mean of donors 28057-28060, Table 16.
The mark [9] stands for this setting: mean of donors 110, 112, 119, 120, Table 14.
Setting [10] is: Table 24, mean of donors 28234-28237.

With “5′-TCGTC-3′-HEG-5′-TCGTC-3′-HEG-5′-TCGTC-3′-HEG-5′-TCGTC-3′ [Compound C-43]”, the “activity when formulated with cPLGA, in words” value (“activity when formulated” below) was “induced considerable IFN-γ and IFN-α when formulated with cPLGA”; the “IFN-γ induction, in words” value is recorded as “induce IFN-γ when used alone”. Where the note is “Table 10, donor 28042”, the IFN-α amounted to 0 pg/mL and the IFN-γ is 128 pg/mL. Under “Table 10, donor 28043”, this substance registered an IFN-α of 14 pg/mL and an IFN-γ of 536 pg/mL. Also, for the setting “Table 10, donor 28044”, the IFN-α is 20 pg/mL and the IFN-γ was 566 pg/mL. Also, where the note is “Table 10, donor 28045”, the IFN-α was determined as 0 pg/mL and the IFN-γ was 16 pg/mL. Besides, for the setting “Table 10, mean of donors”, the IFN-α mean is 8 pg/mL and the IFN-γ mean amounted to 312 pg/mL.

“5′-TCGTCG-3′ [Compound P-2, reference compound]”: the “immunomodulatory activity (IFN-γ / IFN-α secretion), in words” value was “did not have immunomodulatory activity; also recorded: had no activity”. Besides, for the setting “Donor 3, 20 μg/ml, 24 h”, the “IFN-α (pg/ml) Donor 3” value was found to be 0 pg/mL and the “IFN-γ (pg/ml) Donor 3” value was found to be 0 pg/mL. Where the note is “Donor 4, 20 μg/ml, 24 h”, the “IFN-α (pg/ml) Donor 4” value worked out at 40 pg/mL and the “IFN-γ (pg/ml) Donor 4” value turned out to be 4 pg/mL. Further, under “Donor 9, 20 μg/ml, 24 h”, the “IFN-α Donor 9” value is reported as 0 and the “IFN-γ Donor 9” value is 2. For the same substance, where the note is “Donor 10, 20 μg/ml, 24 h”, the “IFN-α Donor 10” value was 2 and the “IFN-γ Donor 10” value stood at 3. In addition, where the note is “Donor 11, 20 μg/ml, 24 h”, the “IFN-α Donor 11” value amounted to 1 and the “IFN-γ Donor 11” value was determined as 1. Moreover, where the note is “Donor 12, 20 μg/ml, 24 h”, the “IFN-α Donor 12” value came out at 4 and the “IFN-γ Donor 12” value came to 2. Moreover, the IFN-a (Table 25, donor 28250) stood at 16 pg/mL. Also, the IFN-g (Table 25, donor 28250, polynucleotides/spacers at amounts equivalent to the CIC, spacers alone 9 uM) came out at 7 pg/mL. Also, under “Table 25, donor 28251”, the IFN-a amounted to 16 pg/mL and the IFN-g is 25 pg/mL. For the setting “Table 25, donor 28252”, this substance returned an IFN-a of 25 pg/mL and an IFN-g of 53 pg/mL. Under “Table 25, donor 28253”, the IFN-a worked out at 16 pg/mL and the IFN-g is 1 pg/mL. Further, under setting [1], the IFN-a mean amounted to 18 pg/mL and the IFN-g mean turned out to be 22 pg/mL. Further, the “IFN-γ (pg/ml) 28065” value (donor 28065 (high background), 20 ug/ml, 24 h, + PLGA = premixed with 100 μg/ml cPLGA, 1000 = outside assay limits) is 79 pg/mL. Further, the “IFN-α (pg/ml) 28065” value (donor 28065, 20 ug/ml, 24 h, + PLGA = premixed with 100 μg/ml cPLGA) worked out at 0 pg/mL. For the same substance, under setting [2], the “IFN-α (pg/ml) 28066” value was 3 pg/mL and the “IFN-γ (pg/ml) 28066” value stood at 1 pg/mL. In addition, under setting [3], the “IFN-α (pg/ml) 28067” value is 0 pg/mL and the “IFN-γ (pg/ml) 28067” value came to 1 pg/mL. Moreover, under setting [4], the “IFN-α (pg/ml) 28068” value worked out at 0 pg/mL and the “IFN-γ (pg/ml) 28068” value was 0 pg/mL. For the same substance, under setting [5], the “IFN-α (pg/ml) mean” value came out at 20 pg/mL and the “IFN-γ (pg/ml) mean” value was 2 pg/mL. Under setting [6], the IFN-α mean worked out at 2 and the IFN-γ mean was 2. Moreover, under setting [7], the “IFN-α (pg/ml) mean” value worked out at 1 pg/mL and the “IFN-γ (pg/ml) mean” value is 20 pg/mL.

In the case of “5′-TCGTCG-3′-(C3)15-5′-T-3′ [Compound C-13]”, the “activity when formulated” value is “all had significant activity when formulated on cPLGA” and the “immunomodulatory activity (IFN-γ / IFN-α secretion), in words” value is given as “None of the CICs was active when used alone”. Besides, for the setting “donor 28057, Table 16”, the “IFN-α” value was 31 pg/mL and the “IFN-γ” value turned out to be 2 pg/mL. Further, for the setting “donor 28058, Table 16”, the “IFN-α” value was 0 pg/mL and the “IFN-γ” value came to 3 pg/mL. In addition, under “donor 28059, Table 16”, the “IFN-α” value worked out at 249 pg/mL and the “IFN-γ” value was 12 pg/mL. For the setting “donor 28060, Table 16”, the “IFN-α” value came out at 0 pg/mL and the “IFN-γ” value came to 5 pg/mL. For the same substance, under setting [8], the “IFN-α (pg/ml) mean” value is 70 pg/mL and the “IFN-γ (pg/ml) mean” value came out at 6 pg/mL.

For “5′-TCGTCG-3′-(HEG)4-5′-T-3′ [Compound C-16]”, the “activity when formulated” value was “all had significant activity when formulated on cPLGA” and the “immunomodulatory activity (IFN-γ / IFN-α secretion), in words” value is “None of the CICs was active when used alone”. In addition, under “donor 28057, Table 16”, the “IFN-α” value was determined as 0 pg/mL and the “IFN-γ” value came out at 1 pg/mL. For the same substance, where the note is “donor 28058, Table 16”, the “IFN-α” value turned out to be 0 pg/mL and the “IFN-γ” value was determined as 2 pg/mL. Also, for the setting “donor 28059, Table 16”, the “IFN-α” value amounted to 0 pg/mL and the “IFN-γ” value turned out to be 0 pg/mL. For the same substance, for the setting “donor 28060, Table 16”, the “IFN-α” value stood at 0 pg/mL and the “IFN-γ” value is 6 pg/mL. Under setting [8], the “IFN-α (pg/ml) mean” value is 0 pg/mL and the “IFN-γ (pg/ml) mean” value was determined as 2 pg/mL.

Turning to “5′-TCGTCG-3′-(HME)15-5′-T-3′ [Compound C-14]”, the “activity when formulated” value was “all had significant activity when formulated on cPLGA” and the “immunomodulatory activity (IFN-γ / IFN-α secretion), in words” value is on record as “None of the CICs was active when used alone”. Besides, for the setting “donor 28057, Table 16”, the “IFN-α” value is 0 pg/mL and the “IFN-γ” value was 3 pg/mL. Besides, under “donor 28058, Table 16”, the “IFN-α” value was determined as 0 pg/mL and the “IFN-γ” value was determined as 1 pg/mL. Under “donor 28059, Table 16”, the “IFN-α” value stood at 0 pg/mL and the “IFN-γ” value turned out to be 1 pg/mL. Moreover, where the note is “donor 28060, Table 16”, the “IFN-α” value worked out at 0 pg/mL and the “IFN-γ” value was found to be 3 pg/mL. Also, under setting [8], the “IFN-α (pg/ml) mean” value came to 0 pg/mL and the “IFN-γ (pg/ml) mean” value is 2 pg/mL.

For “5′-TCGTCG-3′-(TEG)8-5′-T-3′ [Compound C-15]”, the “activity when formulated” value was “all had significant activity when formulated on cPLGA” and the “immunomodulatory activity (IFN-γ / IFN-α secretion), in words” value is “None of the CICs was active when used alone”. Under “donor 28057, Table 16”, the “IFN-α” value came to 0 pg/mL and the “IFN-γ” value came to 5 pg/mL. For the same substance, under “donor 28058, Table 16”, the “IFN-α” value came out at 0 pg/mL and the “IFN-γ” value is 3 pg/mL. In addition, for the setting “donor 28059, Table 16”, the “IFN-α” value came out at 0 pg/mL and the “IFN-γ” value came out at 0 pg/mL. Besides, under “donor 28060, Table 16”, the “IFN-α” value stood at 0 pg/mL and the “IFN-γ” value was determined as 1 pg/mL. Also, under setting [8], the “IFN-α (pg/ml) mean” value came out at 0 pg/mL and the “IFN-γ (pg/ml) mean” value came to 2 pg/mL.

Regarding “5′-TCGTCG-3′-HEG-5′-ACGTTCG-3′-HEG-5′-AGATGAT-3′-TEG [Compound C-29]”, the IFN-α (Table 9, donor 28089) was 75 pg/mL; the IFN-α (Table 9, donor 28090) came to 92 pg/mL; the IFN-α (Table 9, donor 28098) is 359 pg/mL; the IFN-α (Table 9, donor 28099) turned out to be 332 pg/mL. The IFN-γ is 63 pg/mL (Table 9, donor 28089); 50 pg/mL (Table 9, donor 28090); 150 pg/mL (Table 9, donor 28098); 177 pg/mL (Table 9, donor 28099). The substance also displayed an IFN-α mean (Table 9, mean of donors) of 214 pg/mL. For the setting “Table 9, mean of donors”, this substance returned an IFN-γ mean of 110 pg/mL.

With “5′-TCGTCG-3′-HEG-5′-TCGA-3′ [Compound C-40]”, the “activity when formulated” value is given as “significant activity when formulated with cPLGA” and the “immunomodulatory activity (IFN-γ / IFN-α secretion), in words” value is “inactive in this experiment”. Under “Table 10, donor 28042”, this substance displayed an IFN-α of 0 pg/mL and an IFN-γ of 26 pg/mL. For the setting “Table 10, donor 28043”, this substance displayed an IFN-α of 26 pg/mL and an IFN-γ of 55 pg/mL. For the setting “Table 10, donor 28044”, the IFN-α worked out at 31 pg/mL and the IFN-γ is 20 pg/mL. Besides, under “Table 10, donor 28045”, the IFN-α is 2 pg/mL and the IFN-γ came out at 23 pg/mL. Besides, where the note is “Table 10, mean of donors”, the IFN-α mean amounted to 15 pg/mL and the IFN-γ mean was found to be 31 pg/mL. Further, where the note is “donor 110, Table 14”, the “IFN-α” value is 6 pg/mL and the “IFN-γ” value is 180 pg/mL. Also, for the setting “donor 112, Table 14”, the “IFN-α” value was determined as 198 pg/mL and the “IFN-γ” value came to 12 pg/mL. Moreover, where the note is “donor 119, Table 14”, the “IFN-α” value is 152 pg/mL and the “IFN-γ” value turned out to be 4 pg/mL. Under “donor 120, Table 14”, the “IFN-α” value was 2 pg/mL and the “IFN-γ” value was found to be 20 pg/mL. In addition, under setting [9], the “IFN-α (pg/ml) mean” value was 90 pg/mL and the “IFN-γ (pg/ml) mean” value turned out to be 54 pg/mL.

In the case of “5′-TCGTCGA-3′-(HEG)6-5′-TCGTCGA-3′ (phosphodiester linkages) [Compound C-36]”, the “activity when formulated” value is listed as “significantly more active when formulated with cPLGA” and the “immunomodulatory activity (IFN-γ / IFN-α secretion), in words” value is “inactive as CICs alone”.

“5′-TCGTCGA-3′-C3-5′-TCGTCGA-3′-C3-5′-TCGTCGA-3′ [Compound C-90]”: the “IFN-γ induction, in words” value was “similar”. Moreover, under “Table 24, donor 28234”, the IFN-α is 16 pg/mL and the IFN-γ was found to be 7 pg/mL. Further, under “Table 24, donor 28235”, the IFN-α amounted to 46 pg/mL and the IFN-γ turned out to be 118 pg/mL. Where the note is “Table 24, donor 28236”, the IFN-α worked out at 117 pg/mL and the IFN-γ is 497 pg/mL. Where the note is “Table 24, donor 28237”, this substance displayed an IFN-α of 345 pg/mL and an IFN-γ of 1586 pg/mL. Under setting [10], this substance returned an IFN-α mean of 131 pg/mL and an IFN-γ mean of 552 pg/mL.
